15 compounds from US10472381B2, “Sialic acid derivatives” (Reinhard Brossmer, priority 2014, dated 2019) can be followed below.

In one test the target is T1, CD22 (Homo sapiens, UniProt P20273).
T1 construct: The soluble CD22 protein was expressed in the CHO-Lec1 cell line; made in house; host or cells: CHO-Lec1
T1 sequence (P20273 20-687 limits assumed): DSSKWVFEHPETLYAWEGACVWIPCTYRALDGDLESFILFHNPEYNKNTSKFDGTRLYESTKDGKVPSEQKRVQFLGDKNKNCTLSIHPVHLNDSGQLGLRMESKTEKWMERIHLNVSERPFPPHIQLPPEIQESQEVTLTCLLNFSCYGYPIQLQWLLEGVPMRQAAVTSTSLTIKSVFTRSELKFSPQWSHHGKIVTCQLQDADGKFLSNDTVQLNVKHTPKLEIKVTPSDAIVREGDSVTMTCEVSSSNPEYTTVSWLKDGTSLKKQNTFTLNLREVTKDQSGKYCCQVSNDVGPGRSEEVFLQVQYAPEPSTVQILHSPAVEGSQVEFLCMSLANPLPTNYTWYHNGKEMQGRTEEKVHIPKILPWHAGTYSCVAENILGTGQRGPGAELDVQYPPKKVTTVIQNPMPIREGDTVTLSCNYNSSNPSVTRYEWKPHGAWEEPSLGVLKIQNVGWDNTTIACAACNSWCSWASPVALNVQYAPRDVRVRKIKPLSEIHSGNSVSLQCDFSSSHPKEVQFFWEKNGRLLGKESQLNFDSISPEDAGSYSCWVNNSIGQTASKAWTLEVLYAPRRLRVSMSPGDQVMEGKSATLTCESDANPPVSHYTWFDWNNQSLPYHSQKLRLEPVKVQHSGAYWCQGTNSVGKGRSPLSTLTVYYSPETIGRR
Description: ELISA-based inhibition assay: inhibition of binding of soluble CD22 to immobilized IgM. To be noted: Table I; relative to reference BPCNeu5Ac (rIP = 1). On the procedure: The biological activity of the substances was determined in an ELISA-based inhibition assay as described in “Eur. J. Immunol. 2012, 42, 2792-2802”. The sialic acid derivatives of the formula (I) inhibit the binding of soluble CD22 to immobilized IgM in proportion to their affinity for CD22. The soluble CD22 protein was expressed in the CHO-Lec1 cell line and isolated as described by “Eur. J. Immunol. 2012, 42, 2792-2802”. […] The increase in affinity is reported as rIP (relative inhibitory affinity).
A general note: ELISA stands for enzyme-linked immunosorbent assay.
In the case of `CO[C@]1(C(=O)[O-])C[C@H](O)[C@@H](NC(C)=O)[C@H]([C@H](O)[C@H](O)CNC(=O)c2ccc(-c3ccccc3)cc2)O1.[Na+]` [BPC Neu5 Ac, reference compound], the “rIP (relative inhibitory potency)” value was 1. On the same count and under the same terms, for `CC(=O)N[C@H]1[C@H]([C@H](O)[C@H](O)CNC(=O)c2ccc(-c3ccccc3)cc2)O[C@@](OCCCCCC(=O)[O-])(C(=O)[O-])C[C@@H]1NS(=O)(=O)[O-].[Na+].[Na+].[Na+]` [Compound 15] the value was 1920. Take `CC(=O)N[C@H]1[C@H]([C@H](O)[C@H](O)CNC(=O)c2ccc(-c3ccccc3)cc2)O[C@@](OCCCSCCC(=O)[O-])(C(=O)[O-])C[C@@H]1OS(=O)(=O)[O-].[Na+].[Na+].[Na+]` [Compound 20]: the “rIP (relative inhibitory potency)” value was 3130.

Still in this test, the particulars now being: Table I; soluble CD22 binding to immobilized IgM.
Usually IC50 stands for the concentration at which inhibition is half-maximal. Lower therefore signals greater potency. In the case of `CO[C@]1(C(=O)[O-])C[C@H](O)[C@@H](NC(C)=O)[C@H]([C@H](O)[C@H](O)CNC(=O)c2ccc(-c3ccccc3)cc2)O1.[Na+]` [BPC Neu5 Ac, reference compound], the IC50 was found to be 6100 nM. This counts as single-digit micromolar. The same measure, in the same setting: for `CC(=O)N[C@H]1[C@H]([C@H](O)[C@H](O)CNC(=O)c2ccc(-c3ccccc3)cc2)O[C@@](OCCCCCC(=O)[O-])(C(=O)[O-])C[C@@H]1NS(=O)(=O)[O-].[Na+].[Na+].[Na+]` [Compound 15] the value was 3.2 nM. Same read-out and setting: the value for `CC(=O)N[C@H]1[C@H]([C@H](O)[C@H](O)CNC(=O)c2ccc(-c3ccccc3)cc2)O[C@@](OCCCSCCC(=O)[O-])(C(=O)[O-])C[C@@H]1OS(=O)(=O)[O-].[Na+].[Na+].[Na+]` [Compound 20] was 2 nM.

The test is the same for the next values; noted with them: Table II; relative to reference compound 10 co-tested in the same assay (rIP = 1).
Regarding `CC(=O)N[C@@H]1[C@@H](NC(=O)C(C)(C)C)[C@H](O)[C@](OCCCCCC(=O)[O-])(C(=O)[O-])O[C@H]1[C@H](O)[C@H](O)CNC(=O)c1ccc(-c2ccccc2)cc1.[Na+].[Na+]` [Compound 40], the rIP came to 0.38. On the same count and under the same terms, the value for `CC(=O)N[C@@H]1[C@@H](NC(=O)c2ccccc2)[C@H](O)[C@](OCCCCCC(=O)[O-])(C(=O)[O-])O[C@H]1[C@H](O)[C@H](O)CNC(=O)c1ccc(-c2ccccc2)cc1.[Na+].[Na+]` [Compound 48] was 0.93; that for `CCCCC(=O)N[C@@H]1[C@@H](NC(C)=O)[C@H]([C@H](O)[C@H](O)CNC(=O)c2ccc(-c3ccccc3)cc2)O[C@@](OCCCCCC(=O)[O-])(C(=O)[O-])[C@H]1O.[Na+].[Na+]` [Compound 42] was 1.22; that for `CC(=O)N[C@@H]1[C@@H](NC(=O)c2ccccc2C)[C@H](O)[C@](OCCCCCC(=O)[O-])(C(=O)[O-])O[C@H]1[C@H](O)[C@H](O)CNC(=O)c1ccc(-c2ccccc2)cc1.[Na+].[Na+]` [Compound 51] was 0.13.

For the compound `CC(=O)N[C@@H]1[C@@H](NC(=O)CO)[C@H](O)[C@](OCCCCCC(=O)[O-])(C(=O)[O-])O[C@H]1[C@H](O)[C@H](O)CNC(=O)c1ccc(-c2ccccc2)cc1.[Na+].[Na+]` [Compound 44], the rIP was 0.24.

Staying with this test, now noted: Table III; relative to reference compound 17 co-tested in the same assay (rIP = 1).
`CC(=O)N[C@H]1[C@H]([C@H](O)[C@H](O)CNC(=O)c2ccc(-c3ccccc3)cc2)O[C@@](OCCCCCC(=O)[O-])(C(=O)[O-])C[C@@H]1NC(=O)CC1NC(=O)NC1=O.[Na+].[Na+]` (stereo partly drawn) [Compound 58] displayed a rIP of 3.4. The same measure, in the same setting: for `CC(=O)N[C@H]1[C@H]([C@H](O)[C@H](O)CNC(=O)c2ccc(-c3ccccc3)cc2)O[C@@](OCCCCCC(=O)[O-])(C(=O)[O-])C[C@@H]1NC(=O)c1ccco1.[Na+].[Na+]` [Compound 57] the value was 6.1; for `CC(=O)N[C@H]1[C@H]([C@H](O)[C@H](O)CNC(=O)c2ccc(-c3ccccc3)cc2)O[C@@](OCCCCCC(=O)[O-])(C(=O)[O-])C[C@@H]1NC(=O)c1ccc(Cl)cc1.[Na+].[Na+]` [Compound 61], 3.4. The compound `COc1ccc(C(=O)N[C@H]2C[C@](OCCCCCC(=O)[O-])(C(=O)[O-])O[C@@H]([C@H](O)[C@H](O)CNC(=O)c3ccc(-c4ccccc4)cc3)[C@@H]2NC(C)=O)cc1.[Na+].[Na+]` [Compound 63] had a rIP of 0.27. Same read-out and setting: for `CC(=O)N[C@H]1[C@H]([C@H](O)[C@H](O)CNC(=O)c2ccc(-c3ccccc3)cc2)O[C@@](OCCCCCC(=O)[O-])(C(=O)[O-])C[C@@H]1NC(=O)c1ccc(C)cc1.[Na+].[Na+]` [Compound 59] the value was 0.24; for `CC(=O)N[C@H]1[C@H]([C@H](O)[C@H](O)CNC(=O)c2ccc(-c3ccccc3)cc2)O[C@@](OCCCCCC(=O)[O-])(C(=O)[O-])C[C@@H]1NC(=O)c1cnccn1.[Na+].[Na+]` [Compound 55], 2.7.

Still in this test, the particulars now being: Table IV; relative to reference compound 66 co-tested in the same assay (rIP = 1).
Compound `COc1ccccc1-c1ccc(C(=O)NC[C@@H](O)[C@@H](O)[C@@H]2O[C@@](OCCCCCC(=O)[O-])(C(=O)[O-])C[C@H](NC(=O)OCc3ccccc3)[C@H]2NC(C)=O)cc1.[Na+].[Na+]` [Compound 69] showed a rIP of 0.83.
